Series [1] is described as follows: Oral pharmacokinetic study in rat, LC/MS assay in plasma (Examples 21-24). The class given is in vivo. The following applies: 50 mg/kg. The protocol: The following study is an LC/MS assay in plasma of the various molecules over 3 days (11 measurement points in the end). The graphs are always presented in comparison with DX101 which is the reference.
Plasma sampling at 0 (without injection), 5, 10, 15, 30 min, 1 h, 4 h, 8 h, 24 h, 48 h, 72 h (11 points)

For series [2], the system named is MCF-7 breast tumor cells. The experiment in a line: Microscope observation of treated MCF-7 cells. The format is cell-based. The protocol: A cell viability test was performed on MCF-7 (Michigan Cancer Foundation-7) breast tumor cells […] (ER(+) cells).
The MCF-7 cells are in a cell culture medium identical to that of Example 5 and are seeded in 12-well plates at 50 000 cells per well. 24 hours after seeding, the cells are treated with vehicle solvate comprising water and ethanol with a 1% o ratio of ethanol, 3β-fluoro-5α-hydroxy-6β-[2-(1H-imidazol-4-yl)ethylamino]cholestane, and 5α-hydroxy-6β-[2-(1H-imidazol-4-yl)ethylamino]cholestan-3β-ol at 1, 2.5 or 5 μM. The cells are observed under an inverted microscope and photographed via the microscope camera at 24 h and 48 h. The morphological changes in the cells at 1 μM are very small. […] The effects are more marked at 2.5 μM and 5 μM with an increase in the number of dead cells. […] After 24 h of treatment with 3β-fluoro-5α-hydroxy-6β-[2-(1H-imidazol-4-yl)ethylamino]-cholestane at 5 μM, 99% of the observed cells are supernatant, reflecting cell death, and 1% of the cells are adherent and show white vesicles. […] The cytostatic effect is illustrated by an inhibition of cell proliferation.

Series [3] deals with BT-474 human mammary tumor cells. Put plainly: Cell viability of BT-474 cells, MTT. The format is cell-based. The settings on record: for Mean LogIC50 (±SEM) / pIC50: BT-474, MTT, 48 h; for Mean LogIC50 (±SEM): log of IC50 in μM; for pIC50: Homo sapiens. The protocol:
The cell viability is measured by three different methods. For the first method, MTT labeling is performed at 48 hours. This test is based on the use of the tetrazolium salt MTT (3-(4,5-dimethylthiazol-2-yl)-2,5-diphenyltetrazolium bromide). Tetrazolium is reduced by mitochondrial succinate dehydrogenase in active live cells to formazan, a purple colored precipitate. The amount of precipitate formed is proportional to the amount of live cells but also to the metabolic activity of each cell. Thus, a simple determination of the optical density at 550 nm by spectroscopy makes it possible to determine the relative amount of live and metabolically active cells. After 48 hours, the medium is aspirated, and the cells are incubated with MTT (0.5 mg/ml in culture medium) for about 3 hours. The MTT solution is aspirated and the purple crystals are dissolved in dimethyl sulfoxide (DMSO). The OD (optical density) is measured at 550 nm. The percentage of viability is then determined in each well against the CTL and the IC50 (concentration at which 50% of cells remain alive) is determined for each molecule with the Prism software using a nonlinear regression curve (log(inhibitor) vs. Response).
Cell viability tests were also performed on BT-474 human mammary tumor cells (characterized as triple positive HER2+, ER+, PR+). The BT-474 cells were in a cell culture medium identical to the previous example and seeded in 24-well plates at 70 000 cells per well for cell viability determination using trypan blue, or in 96-well plates at 13 000 cells per well for cell viability determination using the MTT or LDH assay. After 96 hours (h) of culture under normal conditions, i.e. in an incubator at 37° C. with […], BT-474 cells were treated for 48 h with DX101, DX103, DX105, DX111, DX123 and DX127 at 100 nM, 1 μM, 2.5 μM and 10 μM. A control is also performed using the protocol described previously without treatment with DX101, DX103, DX105, DX111, DX123 and DX127.
After a 10-minute trypsin digestion at 37° C., the cell survival was also quantified by means of a trypan blue test with automatic counting using the Biorad TC20 machine (TC20™ Automated Cell Counter). The trypan blue test is based on the integrity of cell membranes, which is disrupted in the dead cells. Trypan blue stains dead cells blue. The Biorad TC20 cell counter counts the proportion of blue and non-blue cells, and reports the percentage of cells. The percentage of viability is then determined in each well relative to the untreated cells and the IC50 is determined as explained in the preceding example. Also, the percentage viability of the BT-474 cells was determined using the MTT and LDH assay, performed as described in the preceding example.

Series [4] deals with Neuro2a (murine neuroblastoma) cells. Put plainly: Cytotoxicity on Neuro2a cells, trypan blue test. The format is cell-based. The settings on record: 48 h. The protocol:
For this experiment, a cell culture medium was prepared. The culture medium consisted of Dulbecco's Modified Eagle Medium (DMEM, sold by Westburg under the reference LO BE12-604F), comprising 4.5 g/L glucose with L-glutamine, to which 10% fetal calf serum (FCS) is added. Neuro2a (murine neuroblastoma) cells are introduced into this culture medium.
24-well dishes were seeded with 10 000 Neuro2a cells per well. After 72 hours (h) of culture under normal conditions, i.e., in an incubator at 37° C. with 5% CO2, the Neuro2a cells were treated for 48 h with 3β-fluoro-5α-hydroxy-6β-[2-(1H-imidazol-4-yl)ethylamino]-cholestane and 5α-hydroxy-6β-[2-(1H-imidazol-4-yl)ethylamino]cholestan-3β-ol at 100 nM, 1 μM and 10 μM. A control (CTL) is also performed using the previously described protocol without treatment with […]-5α-hydroxy-6β-[2-(1H-imidazol-4-yl)ethylamino]-cholestane and 5α-hydroxy-6β-[2-(1H-imidazol-4-yl)ethylamino]cholestan-3β-ol. The cell survival was quantified by means of a trypan blue test with automatic counting using the Biorad TC20 machine (TC20™ Automated Cell Counter). The trypan blue test is based on the integrity of cell membranes, which is disrupted in the dead cells. Trypan blue stains dead cells blue. The Biorad TC20 cell counter counts the proportion of blue and non-blue cells, and reports the percentage of cells. The results are represented in FIG. 1.

SMILES strings stand for the structures. pIC50: −log10 of the molar value.

As usually defined, the pIC50 is the negative decadic logarithm of the IC50, by convention in mol/L. A low value points to a large IC50.

Take `CC(C)CCC[C@@H](C)[C@H]1CC[C@H]2[C@@H]3C[C@@H](NCCc4c[nH]cn4)[C@@]4(O)C[C@@H](O)CC[C@]4(C)[C@H]3CC[C@]12C` [DX101, 5α-hydroxy-6β-[2-(1H-imidazol-4-yl)ethylamino]cholestan-3β-ol, reference compound]: in series [1] (oral, plasma, Example 24), the “Area under the curve” value worked out at 3019 and the Max concentration stood at 150 nM. Also, in series [1] (oral, plasma, Examples 21-23), the “Area under the curve” value amounted to 143297 and the Max concentration came out at 140 nM. For the same molecule, the “morphological changes in the cells” value in series [2] (1 μM, 24 h) is given as “Only a few white vesicles”. In addition, in series [3], the “Mean LogIC50 (±SEM)” value came to 0.88 ± 0.03 and the negative logarithm of the IC50 (pIC50) was 5.12.

Take `CC(C)CCC[C@@H](C)[C@H]1CC[C@H]2[C@@H]3C[C@@H](NCCc4c[nH]cn4)[C@@]4(O)C[C@@H](F)CC[C@]4(C)[C@H]3CC[C@]12C` [DX111, 3β-fluoro-5α-hydroxy-6β-[2-(1H-imidazol-4-yl)ethylamino]cholestane]: the “percentage of cell survival relative to the control group” value in series [4] (100 nM) is “unchanged”. For the same molecule, in series [4] (1 μM), the “percentage of cell survival relative to the control group” value worked out at 75%. The “percentage of cell survival relative to the control group” value in series [4] (10 μM) is 30%. In series [1] (in vivo, po), the “Area under the curve” value was determined as 368921, the Max concentration turned out to be 515 nM, the “Time for Cmax” value is on record as 240 min and the “bioavailability / extent of absorption compared with DX101” value is listed as “three-fold higher absorption”. For the same molecule, in series [1] (in vivo, po), the “maximum concentration compared with DX101” value was “higher maximum concentration” and the “speed of absorption compared with DX101” value is given as “faster absorption”. Further, in series [2] (1 μM, 24 h), the “morphological changes in the cells” value is given as “Only a few white vesicles”. Further, the “morphological changes in the cells” value in series [2] (2.5 μM, 24 h) was “numerous white vesicles and detached cells”. Besides, in series [2] (2.5 μM, 48 h), the “cytostatic effect compared with 24 h” value is on record as “stronger cytostatic effect”. Moreover, in series [2] (5 μM, 24 h), the “cells that are adherent and show white vesicles” value came out at 1%; the “observed cells that are supernatant (cell death)” value was found to be 99%. The “morphological changes in the cells” value in series [2] (5 μM, 48 h) is “all the cells are supernatant”. Moreover, in series [2] (24 h of observation), the “effect compared with 5α-hydroxy-6β-[2-(1H-imidazol-4-yl)ethylamino]cholestan-3β-ol” value is “greater or equal effect”. In series [2] (48 h of observation), the “effect compared with 5α-hydroxy-6β-[2-(1H-imidazol-4-yl)ethylamino]cholestan-3β-ol” value is given as “similar”. For the same molecule, in series [3], the “Mean LogIC50 (±SEM)” value worked out at 0.95 ± 0.10 and the negative logarithm of the IC50 (pIC50) is 5.05. Moreover, in series [3] (BT-474, Tables 2a, 2b and 2c (MTT, LDH, Trypan Blue)), the “activity compared with DX101” value is “similar”.
